Test results as given in patent US20050074844A1, “Methods for identifying markers of antimicrobial compounds” (priority 2002, published 2005).
In brackets after ≈: the same amount, converted by molar mass. Where a SMILES comes first, the peptide text is derived from it.

Legend:
[1] = tested on: Bacillus subtilis BGSC1A2; test: microbe, parasite or virus in culture
Protocol: Microbroth dilution assays were performed as described in NCCLS M7-A5 (Vol. 20, No. 2). The assay was performed in a sterile 96 well plate, and the total volume per well was 100 μl. […] The inoculum was prepared by culturing Bacillus subtilis BGSC1A2 overnight in MHB medium at 35° C. with shaking at 200 rpm. The following day 0.5 ml of the overnight culture was used to inoculate MHB medium to obtain a culture in logarithmic phase growth as described in NCCLS M7-A5 (Vol. 20, No. 2) and M26-A (Vol. 19, No. 18). The actual colony forming units per well was confirmed by plating onto TSA or LB agar. Two wells were inoculated for a given concentration. The plates were incubated for 16 to 20 hours at 35° C. The MIC was defined as that concentration of antibiotic resulting in no visible growth of the organism.

[2] = tested on: Bacillus subtilis strain BGSC1A2; test: Growth curve (optical density at 600 nm) of shake flask cultures treated with sub-inhibitory antibiotic concentrations; format: cell-based; conditions: for growth rate as measured by optical density at 600 nm: all sub-inhibitory concentrations tested (Table 3), versus untreated cultures
Protocol: Bacillus subtilis strain BGSC1A2 was streaked onto a LB agar plate and incubated overnight at 37° C. The cultured plate was stored at room temperature for up to one week. Fifty ml of MHB medium in a 250 ml flask was inoculated with one colony from the plate. The culture was incubated overnight at 37° C. and 200 rpm.
A 30.7 ml sample of the overnight culture was used to inoculate 3.6 liters of MHB medium pre-warmed at 37° C. After mixing the culture well, 600 ml aliquots were removed and placed into each of six 2.8 liter baffled shake flasks. A 1 ml sample of each flask was taken for optical density measurement at 600 nm, and the shake flasks were incubated at 37° C. and 200 rpm. One ml samples were taken from each flask every 30 minutes until the OD600 reached 0.2. At this point, which was designated time zero, 100 ml samples from each shake flask were taken, and 50 ml aliquots were placed in each of two 50 ml centrifuge tubes. In addition, 1.1 ml aliquots were taken from each flask with 1 ml used for an optical density measurement at 600 nm and 50 μl of each was placed in a microfuge tube at 4° C. The 50 ml samples were processed immediately by centrifugation at 4000 rpm at 4° C. for 7 minutes, and after centrifugation the supernatant was decanted being careful not to disturb the pellet which was immediately placed at −80° C. for total RNA isolation at a later time.
(§1) At time zero, different sub-inhibitory concentrations (0.1-1×MIC) of a given antibiotic were added to three of the shake flasks (Table 2) and the other three shake flasks were untreated. The shake flasks were incubated at 37° C. and 200 rpm. At times 5, 15, 30 and 60 minutes after antibiotic addition, 100 ml and 1.1 ml samples were taken from each shake flask and processed as described above. After the 60 minute time point, 1.1 ml aliquots from each shake flask were taken every hour for four hours for optical density and cell viability measurements.

[3] = tested on: Bacillus subtilis strain BGSC1A2; test: Cell viability (colony forming units per ml) of cultures treated with sub-inhibitory antibiotic concentrations; format: cell-based; conditions: for colony forming units or viability: all sub-inhibitory concentrations tested (Table 3), versus untreated cultures
Protocol: as §1, with “At time zero, different sub-inhibitory concentrations (0.1-1×MIC) of a given antibiotic were added to three of the shake flasks (Table 2) and the other three shake flasks were untreated.” left out
Cell viability was determined on all the samples by determining colony forming units per ml. Samples collected were diluted in MHB to obtain 10 to 500 colonies per plate as follows: samples collected at t=0 were diluted at 1:100,000; t=5 minutes, dilution was 1:150,000; t=15 minutes, dilution was 1:200,000; t=30 minutes, dilution was 1:250,000; t=1 hour, dilution was 1:300,000; t=1.5 hours, dilution was 1:400,000; t=2.5 hours, dilution was 1:800,000; and t=3.5 hours, dilution was 1:1,000,000. These dilutions factors can be changed as indicated by the response to the antibiotic being tested. For each diluted sample 20 μl and 40 μl aliquots were spread onto each of two pre-warmed LB agar plates, which were incubated overnight at 37° C. The number of colonies on each plate was counted to determine the colony forming units per ml of each sample.

[4] = tested on: Bacillus subtilis strain BGSC1A2; test: Growth curve (optical density at 600 nm) of shake flask cultures treated with sub-inhibitory antibiotic concentrations; format: cell-based; conditions: 0.01 and 0.02 x MIC (0.0025 and 0.005 μg/ml)

Compound	MIC ([1]; Bacillus subtilis, BGSC1A2) [µg/mL]	colony forming units or viability [3]	growth rate as measured by optical density at 600 nm [2]	other results
CC(=O)OCC1=C(C(=O)O)N2C(=O)[C@@H](NC(=O)Cc3cccs3)[C@H]2SC1 [cephalothin]	0.0156 to 0.0625 (≈ 0.0393 to 0.158 µM)	decrease in colony forming units or viability	–	growth rate as measured by optical density ([2]; 0.00156 μg/ml (0.1 x MIC)): very little effect, if any; growth rate as measured by optical density ([2]; 0.0078 μg/ml (0.50 x MIC)): moderate decrease; growth rate as measured by optical density ([2]; 0.0156 μg/ml (1.0 x MIC)): large
O=C(N[C@H](CO)[C@H](O)c1ccc([N+](=O)[O-])cc1)C(Cl)Cl [chloramphenicol]	2 to 4 (≈ 6.19 to 12.4 µM)	–	–	–
O=C(O)c1cn(C2CC2)c2cc(N3CCNCC3)c(F)cc2c1=O [ciprofloxacin]	–	decrease in colony forming units or viability	–	–
CC[C@H]1OC(=O)[C@H](C)[C@@H](O[C@H]2C[C@@](C)(OC)[C@@H](O)[C@H](C)O2)[C@H](C)[C@@H](O[C@@H]2O[C@H](C)C[C@H](N(C)C)[C@H]2O)[C@](C)(O)C[C@@H](C)C(=O)[C@H](C)[C@@H](O)[C@]1(C)O [erythromycin]	0.125 to 0.25 (≈ 0.17 to 0.341 µM)	decrease in colony forming units or viability	decrease in growth rate that was dose dependent	–
CC(C)C[C@@H](NC(=O)[C@H](C)NC(=O)CNC(=O)[C@@H](NC=O)C(C)C)C(=O)N[C@@H](C)C(=O)N[C@@H](C(=O)N[C@H](C(=O)N[C@@H](C(=O)N[C@@H](Cc1c[nH]c2ccccc12)C(=O)N[C@H](CC(C)C)C(=O)N[C@@H](Cc1c[nH]c2ccccc12)C(=O)N[C@H](CC(C)C)C(=O)N[C@@H](Cc1c[nH]c2ccccc12)C(=O)N[C@H](CC(C)C)C(=O)N[C@@H](Cc1c[nH]c2ccccc12)C(=O)NCCO)C(C)C)C(C)C)C(C)C [gramicidin A] (HELM PEPTIDE1{[O=C[*:2]].V.G.A.[dL].A.[dV].V.[dV].W.[dL].W.[dL].W.[dL].W.[OCCN[*:1]]}$$$$V2.0; N-terminus and C-terminus assumed)	–	–	–	MIC ([1]; BGSC1A2): 8.0 µg/mL (≈ 4.25 µM)
CCn1cc(C(=O)O)c(=O)c2ccc(C)nc21 [nalidixic acid]	4 (≈ 17.2 µM)	–	–	–
CCn1cc(C(=O)O)c(=O)c2cc(F)c(N3CCNCC3)cc21 [norfloxacin]	0.5 (≈ 1.57 µM)	decrease in colony forming units or viability	very little effect, if any	–
CO[C@@H]1[C@@H](OC(N)=O)[C@@H](O)[C@H](Oc2ccc3c(O)c(NC(=O)c4ccc(O)c(CC=C(C)C)c4)c(=O)oc3c2C)OC1(C)C [novobiocin]	2 (≈ 3.26 µM)	–	–	–
CO[C@H]1/C=C/O[C@@]2(C)Oc3c(C)c(O)c4c(O)c(c(/C=N/N5CCN(C)CC5)c(O)c4c3C2=O)NC(=O)/C(C)=C\C=C\[C@H](C)[C@H](O)[C@@H](C)[C@@H](O)[C@@H](C)[C@H](OC(C)=O)[C@@H]1C [rifampin]	0.25 to 0.5 (≈ 0.304 to 0.608 µM)	–	–	colony forming units ([3]; 0.01 or 0.02 x MIC (0.0025 and 0.005 μg/ml)): no effect on colony forming units; growth rate as measured by optical density [4]: very little effect if any
[H]/N=C(/N)N[C@H]1[C@H](O)[C@@H](O)[C@H](O[C@@H]2O[C@@H](C)[C@](O)(C=O)[C@H]2O[C@@H]2O[C@@H](CO)[C@H](O)[C@@H](O)[C@@H]2NC)[C@@H](N/C(N)=N\[H])[C@@H]1O [streptomycin]	4 to 8 (≈ 6.88 to 13.8 µM)	decrease in colony forming units or viability	–	growth rate as measured by optical density ([2]; 0.8 μg/ml (0.1 x MIC)): growth rate similar to the untreated cultures; growth rate as measured by optical density ([2]; 4.0 μg/ml (0.50 x MIC)): moderate decrease in growth rate; growth rate as measured by optical density ([2]; 8.0 μg/ml (1.0 x MIC)): large
COc1cc(Cc2cnc(N)nc2N)cc(OC)c1OC [trimethoprim]	0.25 (≈ 0.861 µM)	did not lead to a change in colony forming units or viability	did not have an effect on growth rate	–
CN[C@H](CC(C)C)C(=O)N[C@H]1C(=O)N[C@@H](CC(N)=O)C(=O)N[C@H]2C(=O)N[C@H]3C(=O)N[C@H](C(=O)N[C@H](C(=O)O)c4cc(O)cc(O)c4-c4cc3ccc4O)[C@H](O)c3ccc(c(Cl)c3)Oc3cc2cc(c3O[C@@H]2O[C@H](CO)[C@@H](O)[C@H](O)[C@H]2O[C@H]2C[C@](C)(N)[C@H](O)[C@H](C)O2)Oc2ccc(cc2Cl)[C@H]1O [vancomycin]	0.125 to 0.25 (≈ 0.0863 to 0.173 µM)	no effect on viability	very little effect, if any	–
gentamicin	–	decrease in colony forming units or viability	very little effect if any	MIC ([1]; no visible growth after 16 to 20 hours at 35° C., MHB medium): 0.125 to 0.25 µg/mL
munumbicin B	–	decrease in colony forming units or viability	–	–
